The structures appear in SMILES notation. Some results are limits rather than exact numbers.

The target of the first test is KRAS-G12C/SOS1 interaction (Homo sapiens (Human), UniProt Q07889). Put plainly: Protein-Protein Interaction (PPI) assay, SOS1-KRAS binding assay kit (HTRF).
KRAS-G12C/SOS1 interaction, sequence (Q07889 whole entry, stated change not applied): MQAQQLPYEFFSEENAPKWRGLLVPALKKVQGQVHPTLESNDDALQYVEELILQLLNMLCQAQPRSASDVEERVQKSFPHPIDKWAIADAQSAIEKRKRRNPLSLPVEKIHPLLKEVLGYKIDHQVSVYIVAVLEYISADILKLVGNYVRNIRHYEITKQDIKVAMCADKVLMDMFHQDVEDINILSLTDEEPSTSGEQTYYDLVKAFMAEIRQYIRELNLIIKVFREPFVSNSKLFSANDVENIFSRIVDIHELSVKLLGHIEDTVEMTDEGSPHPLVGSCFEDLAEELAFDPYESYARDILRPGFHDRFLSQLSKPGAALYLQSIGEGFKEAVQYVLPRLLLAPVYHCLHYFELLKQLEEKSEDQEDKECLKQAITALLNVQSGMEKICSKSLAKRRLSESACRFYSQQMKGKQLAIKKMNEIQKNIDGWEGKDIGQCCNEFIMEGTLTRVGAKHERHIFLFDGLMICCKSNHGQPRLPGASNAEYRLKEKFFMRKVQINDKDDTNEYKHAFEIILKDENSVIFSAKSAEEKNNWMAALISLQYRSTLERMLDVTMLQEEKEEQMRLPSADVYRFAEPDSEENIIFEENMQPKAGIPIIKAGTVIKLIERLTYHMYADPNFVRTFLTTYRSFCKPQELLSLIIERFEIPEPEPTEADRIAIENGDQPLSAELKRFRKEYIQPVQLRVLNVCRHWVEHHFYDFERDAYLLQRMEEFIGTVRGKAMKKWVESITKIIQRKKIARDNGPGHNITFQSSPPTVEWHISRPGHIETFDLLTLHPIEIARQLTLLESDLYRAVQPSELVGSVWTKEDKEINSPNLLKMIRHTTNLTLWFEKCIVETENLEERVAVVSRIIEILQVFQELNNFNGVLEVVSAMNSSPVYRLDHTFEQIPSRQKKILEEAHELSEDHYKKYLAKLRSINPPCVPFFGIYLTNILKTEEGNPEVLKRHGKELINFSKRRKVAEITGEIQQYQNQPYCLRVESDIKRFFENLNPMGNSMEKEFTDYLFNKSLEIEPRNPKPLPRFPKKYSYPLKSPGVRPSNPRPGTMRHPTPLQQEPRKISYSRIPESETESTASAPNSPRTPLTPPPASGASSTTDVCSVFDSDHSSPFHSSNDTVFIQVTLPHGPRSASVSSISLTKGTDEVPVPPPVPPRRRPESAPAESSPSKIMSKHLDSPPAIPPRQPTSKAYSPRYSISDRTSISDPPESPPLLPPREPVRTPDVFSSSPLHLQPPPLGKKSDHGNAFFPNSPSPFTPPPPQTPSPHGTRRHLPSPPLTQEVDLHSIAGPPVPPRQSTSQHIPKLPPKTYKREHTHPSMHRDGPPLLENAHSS
Details: not given
The procedure: This Example illustrates that exemplary compounds of the present invention blockade the interaction of SOS1 to KRAS protein.
The ability of a compound of Formula (I) to block the interaction of SOS1 to KRAS was measured using a SOS1-KRAS binding assay kit (CAT #63ADK000CB16PEG, Cisbio). Utilizing HTRF (Homogeneous Time-resolved Fluorescence) technology, the assay enables simple and rapid characterization of compound and antibody blockers in a high throughput format. The interaction between Tag1-SOS1 and Tag2-KRAS-G12C is detected by using anti-Tag1-Terbium antibody (HTRF donor) and anti-Tag2-XL665 antibody (HTRF acceptor). When the donor and acceptor antibodies are brought into close proximity due to SOS1 and KRAS-G12C binding, excitation of the donor antibody triggers fluorescent resonance energy transfer (FRET) towards the acceptor antibody, which in turn emits specifically at 665 nm. This specific signal is directly proportional to the extent of KRAS-G12C/SOS1 interaction.
The assay was carried according to the manufacturer's instructions. Compounds at an initial concentration of 10 mM in DMSO were first serially diluted on a 384-well plate using assay buffer at a ratio of 1:3 for a total of 9 concentrations with each of a volume of 20 μL. Blank buffer was included as the negative control. The final compound solution was in the buffer solution with 1% DMSO. Then, in each well of a 384-well plate, a solution of 2 μL compound solution, 4 μL tagged SOS1 and KRAS (G12C) protein stocks, respectively, and 10 μM GTP was incubated for 15 min. 10 μL mixture of […] antibody and anti-Tag1-Terbium antibody was introduced to each individual well. After 2 hours incubation at room temperature, fluorescence readout was measured with a Pelkin Elmer multiple plate reader VICTOR Nivo.
Excitation was from over a range of 245-395 nm, and emission from the donor (emission 1) was detected at […] and emission from the acceptor (emission 2) was detected at (606.5-623.5) nm. The HTRF ratio was calculated using the formula: (emission 1 @665 nm/emission 2 @620 nm)×10000. Thus, compounds blocking KRAS-G12C/SOS1 interaction will cause a reduction in HTRF signal ratio. The IC50 values were then calculated with the Graph pad Prism software.
A general note: In TR-FRET formats the signal depends on donor and acceptor labels being close together.
`Cc1nc(N[C@H](C)c2cc(N)cc(C(F)(F)F)c2)c2cc(N3CCOCC3)c3nnc(C)n3c2n1` [Example 87] yielded an IC50 greater than 100 nM.
Same read-out and setting: to `C[C@@H](Nc1ncnc2c1cc(N1C3COCC1C3)c1nncn12)c1cccc(C(F)F)c1F` [Example 80] belongs greater than 100 nM; to `CCOC(=O)c1cc2c(N[C@H](C)c3cccc(C(F)F)c3F)nc(C)nc2n2cnnc12` [Example 53], greater than 100 nM; to `Cc1nc(N[C@H](C)c2cccc(C(F)F)c2F)c2cc(N3CCC(F)(F)CC3)c3nncn3c2n1` [Example 75], greater than 100 nM.
On the same count and under the same terms, to `CNC(=O)c1cc2c(N[C@H](C)c3cccc(C(F)F)c3F)nc(C)nc2n2ncnc12` [Example 9] belongs greater than 100 nM; to `Cc1nc(N[C@H](C)c2cccc(C(F)F)c2F)c2cc(C(=O)N(C)C3COC3)c3ncnn3c2n1` [Example 8], greater than 100 nM; to `Cc1nc(N[C@H](C)c2cccc(C(F)F)c2F)c2cc(C(=O)N(C(C)C)C(C)C)c3ncnn3c2n1` [Example 7], greater than 100 nM.
On the same count and under the same terms, to `Cc1nc(N[C@H](C)c2cccc(C(F)F)c2F)c2cc(C(=O)N(C(C)C)C(C)C)c3nnnn3c2n1` [Example 56] belongs greater than 100 nM; to `Cc1nc(N[C@H](C)c2cccc(C(F)F)c2F)c2cc(N3CC(O)C3)c3nncn3c2n1` [Example 77], greater than 100 nM; to `CC(=O)N1CCC(c2cc3c(N[C@H](C)c4cccc(C(F)F)c4F)nc(C)nc3n3c(C)nnc23)CC1` [Example 141], greater than 100 nM.
Consider `Cc1nc(N[C@H](C)c2cccc(C(F)F)c2F)c2cc(C(=O)N3C4COCC3C4)c3nnnn3c2n1` [Example 65], for which the IC50 was greater than 100 nM.
The same measure, in the same setting: in the case of `C[C@@H](Nc1ncnc2c1cc(N1CCOCC1)c1nncn12)c1cccc(C(F)(F)F)c1F` [Example 84] it was greater than 100 nM; in that of `Cc1nc(N[C@H](C)c2cccc(C(F)F)c2F)c2cc(C(=O)NC(C)(C)C)c3ncnn3c2n1` [Example 10], greater than 100 nM; in that of `Cc1nc(N[C@H](C)c2cccc(C(F)F)c2F)c2cc(C(=O)NC(C)(C)C)c3nnnn3c2n1` [Example 57], greater than 100 nM.
On the same count and under the same terms, to `Cc1nc(N[C@H](C)c2cccc(C(F)F)c2F)c2cc(C(=O)N3CCOC[C@H]3C)c3ncnn3c2n1` [Example 15] belongs greater than 100 nM.
The same measure, in the same setting: in the case of `CC(=O)N1CC=C(c2cc3c(N[C@H](C)c4cccc(C(F)F)c4F)nc(C)nc3n3cnnc23)C1` [Example 103] it was greater than 100 nM; in that of `CC(=O)N1CC2(C1)CN(c1cc3c(N[C@H](C)c4cccc(C(F)F)c4F)ncnc3n3cnnc13)C2` [Example 82], greater than 100 nM.

Still in this test, the particulars now being: read-out: PPI Assay IC50.
With `Cc1nc(N[C@H](C)c2cccc(C(F)F)c2F)c2cc(C(=O)N3CCOCC3(C)C)c3ncnn3c2n1` [Example 14], the IC50 is less than 100 nM.
On the same count and under the same terms, in the case of `Cc1nc(N[C@H](C)c2cccc(C(F)F)c2F)c2cc(C3CCSCC3)c3nncn3c2n1` [Example 138] it was less than 100 nM.
On the same count and under the same terms, to `C[C@@H](Nc1ncnc2c1cc(C(=O)N1CCC13COC3)c1ncnn12)c1cccc(C(F)F)c1F` [Example 43] belongs less than 100 nM; to `Cc1nc(N[C@H](C)c2cccc(C(F)F)c2F)c2cc(C(=O)N3CCOC[C@@H]3C)c3ncnn3c2n1` [Example 12], less than 100 nM.
The same measure, in the same setting: in the case of `C[C@@H](Nc1ncnc2c1cc(C(=O)N1CCC13CNC3)c1ncnn12)c1cccc(C(F)F)c1F` [Example 45] it was less than 100 nM.
Consider `CC(=O)N1CCC(c2cc3c(N[C@H](C)c4cccc(C(F)F)c4F)nc(C)nc3n3cnnc23)CC1(C)C` (stereo partly shown) [Example 139], for which the IC50 is less than 100 nM.
Same read-out and setting: in the case of `CC(=O)NC1(c2cc3c(N[C@H](C)c4cccc(C(F)F)c4F)ncnc3n3cnnc23)CCN(C(C)=O)CC1` [Example 134, (R)—N-(1-acetyl-4-(4-((1-(3-(difluoromethyl)-2-fluorophenyl)ethyl)amino)-[1,2,4]triazolo[4′,3′:1,6]pyrido[2,3-d]pyrimidin-6-yl)piperidin-4-yl)acetamide] it was less than 100 nM; in that of `CC(=O)N1CC2(C1)CN(c1cc3c(N[C@H](C)c4cccc(C(F)F)c4F)nc(C)nc3n3cnnc13)C2` [Example 78], less than 100 nM; in that of `C[C@H](O)C(=O)N1CCC(c2cc3c(N[C@H](C)c4cccc(C(F)F)c4F)ncnc3n3cnnc23)CC1` [Example 72], less than 100 nM.
As for `C[C@@H](Nc1ncnc2c1cc(C(=O)N1CCN(CCS(C)(=O)=O)CC1)c1ncnn12)c1cccc(C(F)F)c1F` [Example 41], the IC50 was less than 100 nM.
For `C[C@@H](Nc1ncnc2c1cc(C1(O)CCS(=O)(=O)CC1)c1nncn12)c1cccc(C(F)F)c1F` [Example 110], the IC50 is less than 100 nM.
The same measure, in the same setting: to `Cc1nc(N[C@H](C)c2cccc(C(F)F)c2F)c2cc(C(=O)N3CC(O)C3)c3ncnn3c2n1` [Example 25] belongs less than 100 nM; to `Cc1nc(N[C@H](C)c2cccc(C(F)F)c2F)c2cc(C3CCN(S(C)(=O)=O)CC3)c3nnnn3c2n1` [Example 143], less than 100 nM.
For `Cc1nc(N[C@H](C)c2cccc(C(F)F)c2F)c2cc(N3CC(C(=O)N(C)C)C3)c3nnnn3c2n1` [Example 94], the IC50 was less than 100 nM.
For `C[C@@H](Nc1ncnc2c1cc(C(=O)N1C3CCC1COC3)c1ncnn12)c1cccc(C(F)F)c1F` [Example 49], the IC50 is less than 100 nM.
Regarding `Cc1nc(N[C@H](C)c2cccc(C(F)F)c2F)c2cc(C(=O)N3CCCC34CCCC4)c3ncnn3c2n1` [Example 32], the IC50 was less than 100 nM.
The same measure, in the same setting: in the case of `CC(=O)N1CC=C(c2cc3c(N[C@H](C)c4cccc(C(F)F)c4F)nc(C)nc3n3c(C)nnc23)CC1` [Example 104] it was less than 100 nM; in that of `CC(=O)N1CC2(CCN2C(=O)c2cc3c(N[C@H](C)c4cccc(C(F)F)c4F)nc(C)nc3n3nnnc23)C1` [Example 61], less than 100 nM.
On the same count and under the same terms, to `CC(=O)N1CCC(O)(c2cc3c(N[C@H](C)c4cccc(C(F)F)c4F)nc(C)nc3n3c(C)nnc23)CC1` [Example 111] belongs less than 100 nM; to `Cc1nc(N[C@H](C)c2cccc(C(F)F)c2F)c2cc(C(=O)N3CCCC34CCOC4)c3nncn3c2n1` (stereo partly shown) [Example 52], less than 100 nM.
Same read-out and setting: to `Cc1nc(N[C@H](C)c2cccc(C(F)F)c2F)c2cc([C@H]3CC[C@H](O)CC3)c3nncn3c2n1` [Example 90-P2, trans-4-(4-(((R)-1-(3-(difluoromethyl)-2-fluorophenyl)ethyl)amino)-2-methyl-[1,2,4]triazolo[4′,3′:1,6]pyrido[2,3-d]pyrimidin-6-yl)cyclohexan-1-ol] belongs less than 100 nM.
Regarding `C[C@@H](Nc1ncnc2c1cc(C(=O)N1C3CCN(C)CC1C3)c1ncnn12)c1cccc(C(F)F)c1F` (stereo partly shown) [Example 48], the IC50 is less than 100 nM.
Same read-out and setting: to `Cc1nc(N[C@H](C)c2cccc(C(F)F)c2F)c2cc(C(=O)N3C4CCC3COC4)c3nnnn3c2n1` [Example 64] belongs less than 100 nM; to `Cc1nc(N[C@H](C)c2cccc(C(F)F)c2F)c2cc(C(=O)N3CCOCC3)c3nccn3c2n1` [Example 54, (R)-(4-((1-(3-(difluoromethyl)-2-fluorophenyl)ethyl)amino)-2-methylimidazo[1′,2′:1,6]pyrido[2,3-d]pyrimidin-6-yl)(morpholino)methanone], less than 100 nM.
Still for that read-out and setting: in the case of `C[C@@H](Nc1ncnc2c1cc(C(=O)N(C)C)c1ncnn12)c1cccc(C(F)F)c1F` [Example 40] it was less than 100 nM.
Take `Cc1nc(N[C@H](C)c2cccc(C(F)F)c2F)c2cc(C(=O)N3CCC4(CCOC4)C3)c3ncnn3c2n1` (stereo partly shown) [Example 34]: the IC50 was less than 100 nM.

As usually defined, the IC50 is the concentration that inhibits the measured activity by half.

The record behind these values is patent publication US20250230159A1, “FUSED HETEROCYCLIC COMPOUNDS AS MODULATORS OF RAS SIGNALLING” (Shenzhen Ionova Life Science Co., Ltd., priority 2022, published 2025).
